According to PMC9364363 (RSC Advances, 2022):
pIC50: −log10 of the molar value. Converted amounts (≈) assume the structure as drawn. Where two headings read alike, the source gives them in different places.

What was measured:
[1] = test system: MRC-5 lung fibroblast cell line
M. avium subsp. avium = test: microbe, parasite or virus in culture; format: cell-based, Mycobacterium avium subsp. avium; conditions: read-out: IC50 M. avium subsp. avium
Mtb H37Ra^lux = test: microbe, parasite or virus in culture; format: cell-based, Mycobacterium tuberculosis; conditions: for pIC50: read-out: Mtb H37Ra^lux IC50; for MIC: read-out: Mtb H37Ra^lux IC90 (MIC)
M. intracellulare = test: microbe, parasite or virus in culture; format: cell-based, Mycobacterium intracellulare; conditions: read-out: IC50 M. intracellulare
in vitro = conditions: human
M. abscessus = test: microbe, parasite or virus in culture; format: cell-based, Mycobacterium abscessus; conditions: read-out: IC50 M. abscessus
M. smegmatis = format: cell-based, Mycobacterium smegmatis; conditions: read-out: IC50 M. smegmatis; luminometry, 3 days
[2] = Mycobacterium tuberculosis, H37RA, 168 h
[3] = Mycobacterium intracellulare, 168 h
[4] = Mycobacteroides abscessus, 72 h

Molecule: Cc1nc2sc3ccccc3n2c1C(=O)N1CCN(Cc2cn(-c3cccc([N+](=O)[O-])c3)nn2)CC1 [IT08, (2-Methylbenzo-[d]-imidazo-[2,1-b]-thiazol-3-yl)(4-((1-(3-nitrophenyl)-1H-1,2,3-triazol-4-yl)-methyl)-piperazin-1-yl)-methanone]
- T.I. CC50/IC50 [1]: 43.2
- pIC50 (M. avium subsp. avium; Mycobacterium avium, 168 h): < 3.89
- pIC50 (Mtb H37Ra^lux; [2]): 5.53
- MIC (Mtb H37Ra^lux; [2]): 11.8 µM (≈ 5.94 µg/mL)
- pIC50 (M. intracellulare; [3]): < 3.89
- CC50 (in vitro): > 128 µM
- pIC50 (M. abscessus; [4]): < 3.89

Molecule: Cc1nc2sccn2c1C(=O)N1CCN(CCn2cc(CSc3nc4ccccc4[nH]3)nn2)CC1 [IT04, (4-(2-(4-(((1H-Benzo-[d]-imidazole-2-yl)-thio)-methyl)-1H-1,2,3-triazol-1-yl)-ethyl)-piperazin-1-yl)(6-methylimidazo-[2,1-b]-thiazol-5-yl)-methanone]
- T.I. CC50/IC50 [1]: 32.5
- pIC50 (M. avium subsp. avium; Mycobacterium avium, 168 h): < 3.89
- pIC50 (Mtb H37Ra^lux; [2]): 5.40
- MIC (Mtb H37Ra^lux; [2]): 14.6 µM (≈ 7.41 µg/mL)
- pIC50 (M. intracellulare; [3]): < 3.89
- CC50 (in vitro): > 128 µM
- pIC50 (M. abscessus; [4]): < 3.89

Molecule: CCCCCCCCCc1cn(CCN2CCN(C(=O)c3c(C)nc4sccn34)CC2)nn1 [IT03, (6-Methylimidazo-[2,1-b]-thiazol-5-yl)(4-(2-(4-nonyl-1H-1,2,3-triazol-1-yl)-ethyl)-piperazin-1-yl)-methanone]
- T.I. CC50/IC50 [1]: 15.8
- pIC50 (M. avium subsp. avium; Mycobacterium avium, 168 h): < 3.89
- pIC50 (Mtb H37Ra^lux; [2]): 5.54
- MIC (Mtb H37Ra^lux; [2]): 10.2 µM (≈ 4.82 µg/mL)
- pIC50 (M. intracellulare; [3]): 4.20
- CC50 (in vitro): 45.5 µM
- pIC50 (M. abscessus; [4]): < 3.89

Molecule: (4-(2-(4-((1H-Benzo-[d]-imidazole-2-yl)-thio)-1H-1,2,3-triazol-1-yl)-ethyl)-piperazin-1-yl)(2-methylbenzo-[d]-imidazo[2,1-b]-thiazol-3-yl)-methanone [IT16]
- T.I. CC50/IC50 [1]: 8.2
- pIC50 (M. avium subsp. avium; luminometry, 7 days): 3.91
- Mtb H37Ra^lux IC90 (MIC) (Mtb H37Ra^lux): 14.49 µM
- pIC50 (Mtb H37Ra^lux): 5.15
- pIC50 (M. intracellulare; luminometry, 7 days): < 3.89
- pIC50 (M. abscessus; luminometry, 3 days): < 3.89
- pIC50 (M. smegmatis): 3.99

Molecule: Cc1nc2sccn2c1C(=O)N1CCN(CCn2cc(-c3ccc(C(C)(C)C)cc3)nn2)CC1 [IT02, (4-(2-(4-(4-(tert-Butyl)phenyl)-1H-1,2,3-triazol-1-yl)-ethyl)-piperazin-1-yl)(6-methylimidazo-[2,1-b]-thiazol-5-yl)-methanone]
- T.I. CC50/IC50 [1]: 8.8
- pIC50 (M. avium subsp. avium; Mycobacterium avium, 168 h): 3.90
- pIC50 (Mtb H37Ra^lux; [2]): 5.28
- MIC (Mtb H37Ra^lux; [2]): 12.8 µM (≈ 6.13 µg/mL)
- pIC50 (M. intracellulare; [3]): 3.92
- CC50 (in vitro): 46 µM
- pIC50 (M. abscessus; [4]): < 3.89

Molecule: Cc1nc2sc3ccccc3n2c1C(=O)N1CCN(Cc2cn(-c3ccc([N+](=O)[O-])cc3)nn2)CC1 [IT10, (2-Methylbenzo-[d]-imidazo-[2,1-b]-thiazol-3-yl)(4-((1-(4-nitrophenyl)-1H-1,2,3-triazol-4-yl)-methyl)-piperazin-1-yl)-methanone]
- T.I. CC50/IC50 [1]: 55.2
- pIC50 (M. avium subsp. avium; Mycobacterium avium, 168 h): < 3.89
- pIC50 (Mtb H37Ra^lux; [2]): 5.63
- MIC (Mtb H37Ra^lux; [2]): 7.05 µM (≈ 3.54 µg/mL)
- pIC50 (M. intracellulare; [3]): < 3.89
- CC50 (in vitro): > 128 µM
- pIC50 (M. abscessus; [4]): < 3.89

Molecule: Cc1nc2sc3ccccc3n2c1C(=O)N1CCN(Cc2cn(-c3cccc(Cl)c3)nn2)CC1 [IT11, (4-((1-(3-Chlorophenyl)-1H-1,2,3-triazol-4-yl)-methyl)-piperazin-1-yl)(2-methylbenzo-[d]-imidazo-[2,1-b]-thiazol-3-yl)-methanone]
- T.I. CC50/IC50 [1]: 7.6
- pIC50 (M. avium subsp. avium; Mycobacterium avium, 168 h): 4.00
- pIC50 (Mtb H37Ra^lux; [2]): 5.41
- MIC (Mtb H37Ra^lux; [2]): 14.5 µM (≈ 7.11 µg/mL)
- pIC50 (M. intracellulare; [3]): 4.01
- CC50 (in vitro): 29.4 µM
- pIC50 (M. abscessus; [4]): < 3.89
